Assays:
Type in all cases: cell-based, human
[1] = system: retinal endothelial cells (REC); experiment: VEGF-induced REC proliferation, WST-1 metabolic assay; conditions: Compound (II-4) (500 nM), LY294002 (1004), SU6656 (104), U0126 (104) [sic]
Experimental: To investigate the potential of compound (II-4) affecting the proliferative capacity of RECs treated with VEGF, proliferation was measured using the metabolic assay based on the tetrazolium salt, WST-1. […] To rule out the possibility that this observation was related to cytotoxicity, RECs were incubated with a high concentration of compound (II-4) (1 μM) for 24 hours. Cells were harvested and apoptosis measured with Annexin-V/Propidium Iodide (PI) staining and analyzed using flow cytometry.
FIG. 18: REC Proliferation and Flow cytometry analysis of apoptosis in REC. A) VEGF-induced cellular proliferation was assessed using the WST-1 metabolic assay. […] (*P<0.0001). Nuclei were stained with DRAQ5 and imaged to show trend of decreasing proliferation. B) Apoptosis was measured using Annexin V/PI staining Compound (II-4) (1 μM) appears to be non-cytotoxic to retinal endothelial cells after 24 hour incubation (n≈10,000 cells).
FIG. 21: REC Proliferation. […] (*, # P<0.001; Mean±SD, N=8/group).

[2] = system: paxillin (pY118); experiment: Western blot of VEGF-induced paxillin Y118 phosphorylation in REC; conditions: REC under VEGF; compound (II-4) 500 nM, SU6656 1 μM
Experimental: (§1) REC, Mel 270, OMM 2.5 under Hepatocyte Growth Factor (HGF) or Vascular Endothelial Growth Factor (VEGF) stimulation conditions: Cell lysates were collected in RIPA lysis buffer (50 mM Tris-HCl, pH 7.4, 150 mM NaCl, 2 mM EDTA, 1% Nonidet P-40, 0.1% SDS) with protease 1× inhibitor cocktail (Roche; Indianapolis, Ind.). Lysates were kept on ice and centrifuged at 10,000×g×10 minutes and total protein was measured using the BCA assay (Pierce, Rockford, Ill.). Protein samples were mixed with 4×LDS loading buffer with 2.5% 2-mercaptoethanol (Sigma-Aldrich), heated to 70° C. for 10 minutes, and loaded on NuPAGE 4-12% Bis-Tris gel (Invitrogen, Carlsbad, Calif.). Immunoblotting was performed with nitrocellulose membranes (Bio-Rad, Hercules, Calif.) at 170-mA start and 110-mA end at 25 V for two hours in NuPAGE transfer buffer (Invitrogen) containing 20% methanol. Membranes were blocked using Odyssey blocking buffer (LI-COR; Lincoln, Nebr.) for one hour at room temperature with gentle shaking Membranes were then incubated at 4° C. with specific primary antibodies (1:1000) overnight. Cellular protein was normalized using rabbit-GAPDH or mouse-α-Tubulin [1:20,000] (Cell Signaling, Danvers, Mass.; LI-COR, respectively). Secondary antibodies (IRDye 800CW goat anti-rabbit and IRDye 680LT goat anti-mouse) [1:10,000] were incubated in the dark at room temperature for 45 minutes. Dual-channel infrared scan and quantitation of immunoblots were conducted using the ODYSSEY Sa infrared imaging system with Image Studio (Ver. 3.1.4) (LI-COR).
The α4 subunit of the cytoplasmic tail of VLA-4 interacts with the cytoskeletal adaptor paxillin, merging intracellular signaling events that drive cellular proliferation and migration (FIG. 13). Compound (II-4) inhibits phosphorylation of paxillin at Y118 (pY118) in the LD-region that interacts with the α4 subunit of VLA-4. To confirm the inhibition of pY118 of paxillin after use of compound (II-4) retinal endothelial cells (REC) were activated with Vascular Endothelial Growth Factor (VEGF) at 50 ng/mL in the presence or absence (vehicle) of compound (II-4) at a concentration of […] for 4-hrs. […] VEGF-induced pY118 was prevented by treatment with compound (II-4) [VEGF-REC treatment versus untreated, *p<0.005; VEGF-induced versus compound (II-4) treatment, **p<0.05—FIG. 13C].
To gain insight into the mechanistic basis for this phenotype, the effect of compound (II-4) on the Src/FAK/paxillin/ERK signalsome in RECs under VEGF was examined. […] Next, characterization of the potential of compound (II-4) to affect FA disassembly through inactivation of ERK was explored. […]
FIG. 13: Targeting the alpha-4 subunit of VLA-4 signaling through inhibition of paxillin. […] Phosphorylation measured by Western Blot. […]

[3] = system: FAK (Y397, Y576/577, Y925); experiment: Western blot of VEGF-induced FAK phosphorylation in REC; conditions: REC under VEGF; compound (II-4) 500 nM, SU6656 1 μM
Experimental: as §1, with “Secondary antibodies (IRDye 800CW goat anti-rabbit and IRDye 680LT goat anti-mouse) [1:10,000] were incubated in the dark at room temperature for 45 minutes.” left out, “(LI-COR). […]” for “(LI-COR).”

[4] = system: AKT (Ser473); experiment: Western blot of VEGF-induced AKT phosphorylation in REC; conditions: REC under VEGF; compound (II-4) 500 nM, SU6656 1 μM
Experimental: as §1, with “Secondary antibodies (IRDye 800CW goat anti-rabbit and IRDye 680LT goat anti-mouse) [1:10,000] were incubated in the dark at room temperature for 45 minutes.” left out, “(LI-COR). […]” for “(LI-COR).”

[5] = system: ERK1/2; experiment: Western blot of VEGF-induced ERK1/2 phosphorylation in REC; conditions: REC under VEGF; compound (II-4) 500 nM, SU6656 1 μM
Experimental: as §1, with “Secondary antibodies (IRDye 800CW goat anti-rabbit and IRDye 680LT goat anti-mouse) [1:10,000] were incubated in the dark at room temperature for 45 minutes.” left out, “(LI-COR). […]” for “(LI-COR).”

| SMILES | VEGF-induced REC proliferation (FIG. 21) [1] | VEGF-induced PaxY118 phosphorylation (FIG. 20) [2] | VEGF-induced FAK activation (Y397, Y925) [3] | VEGF-induced activation of AKT (P-AKT Ser473) [4] | VEGF-dependent ERK1/2 phosphorylation [5] |
| --- | --- | --- | --- | --- | --- |
| CN(C)S(=O)(=O)c1ccc2c(c1)/C(=C/c1cc3c([nH]1)CCCC3)C(=O)N2 [SU6656, reference compound] | inhibited | inhibited | inhibited | inhibited | Neither SU6656 nor compound (II-4) decreased |
| N#CC(=C(/N)Sc1ccccc1N)/C(C#N)=C(\N)Sc1ccccc1N [U0126, reference compound] | VEGF-induced REC proliferation was inhibited | no change in activation of Y118 |  |  |  |
